ChEMBL document CHEMBL3045315, “Effect of ring A and ring B substitution on the cytotoxic potential of pyrazole tethered chalcones” (Med Chem Res, 2012)

Legend:
Assay type in all cases: functional, cell-based
IMR-32 = experiment: Cytotoxicity against Homo sapiens (human) IMR32 cells after 48 hr by SRB assay; settings: IMR-32, 48 h
HEp-2 = experiment: Cytotoxicity against Homo sapiens (human) Hep2 cells after 48 hr by SRB assay; settings: HEp-2, 48 h
OVCAR = experiment: Cytotoxicity against Homo sapiens (human) OVCAR cells after 48 hr by SRB assay
PC-3 = experiment: Cytotoxicity against Homo sapiens (human) PC3 cells after 48 hr by SRB assay; settings: PC-3, 48 h

Row | SMILES | IC50 (IMR-32) [µM] | IC50 (HEp-2) [µM] | IC50 (OVCAR) [µM] | IC50 (PC-3) [µM]
1 | COc1ccc(OC)c(C2CC(c3cccc4ccccc34)=NN2C(C)=O)c1 (centres undefined) | 1.58 | 1.31 | 2.65 | 1.98
2 | CC(=O)N1N=C(c2ccc(Br)cc2)CC1c1ccc2c(c1)OCO2 (centres undefined) | 9.89 | 8.72 | 11.2 | 11
3 | CC(=O)N1N=C(c2ccco2)CC1c1ccc(Cl)cc1 (centres undefined) | 38.9 | 57.4 | 31.3 | 39
4 | CC(=O)N1N=C(c2cccc([N+](=O)[O-])c2)CC1c1ccc2c(c1)OCO2 (centres undefined) | 7.89 | 7.65 | 9.87 | 8.21
5 | CC(=O)N1N=C(c2ccco2)CC1c1ccc(Br)cc1 (centres undefined) | 47.8 | 51.2 | 18.9 | 42.1
6 | CC(=O)N1N=C(c2ccco2)CC1c1cccc(Cl)c1Cl (centres undefined) | 62.2 | 43.2 | 81.2 | 61.2
7 | CC(=O)N1N=C(c2cccc3ccccc23)CC1c1ccc2ccccc2c1 (centres undefined) | 0.27 | 0.19 | 0.25 | 0.21
8 | CC(=O)N1N=C(c2ccccc2)CC1c1ccc2c(c1)OCO2 (centres undefined) | 7.64 | 6.65 | 8.73 | 8.89
9 | CC(=O)N1N=C(c2ccc(Br)cc2)CC1c1ccccc1 (centres undefined) | 22.4 | 27.8 | 21.2 | 29.9
10 | COc1ccc(C2CC(c3ccc4ccccc4c3)=NN2C(C)=O)cc1OC (centres undefined) | 1.59 | 1.01 | 2.45 | 1.98
11 | CC(=O)O[C@H]1C(=O)[C@@]2(C)[C@H]([C@H](OC(=O)c3ccccc3)[C@]3(O)C[C@H](OC(=O)[C@H](O)[C@@H](NC(=O)c4ccccc4)c4ccccc4)C(C)=C1C3(C)C)[C@]1(OC(C)=O)CO[C@@H]1C[C@@H]2O [PACLITAXEL] | 0.03 | 0.11 | 0.06 | 0.12
12 | COc1cc(C2CC(c3ccccc3)=NN2C(C)=O)ccc1O (centres undefined) | 5.78 | 4.99 | 6.63 | 7.56
13 | CC(=O)N1N=C(c2ccccc2)CC1c1cccc(Cl)c1Cl (centres undefined) | 42.9 | 24 | 36.8 | 31.6
14 | CC(=O)N1N=C(c2cccc3ccccc23)CC1c1cccc(Cl)c1Cl (centres undefined) | 22.1 | 16.8 | 19.1 | 20.1
15 | CC(=O)N1N=C(c2ccco2)CC1c1ccc(N(C)C)cc1 (centres undefined) | 16.1 | 16 | 14.6 | 16.7
16 | CC(=O)N1N=C(c2ccc3ccccc3c2)CC1c1ccc2ccccc2c1 (centres undefined) | 0.19 | 0.17 | 0.23 | 0.2
17 | COc1ccc(C2CC(c3ccccc3)=NN2C(C)=O)cc1OC (centres undefined) | 4.49 | 7.85 | 5.56 | 6.78
18 | CC(=O)N1N=C(c2cccc3ccccc23)CC1c1ccc2c(c1)OCO2 (centres undefined) | 1.91 | 1.07 | 3.76 | 2.09
19 | CC(=O)N1N=C(c2ccco2)CC1c1cccc([N+](=O)[O-])c1 (centres undefined) | 28.9 | 30 | 23.4 | 20
20 | CC(=O)N1CC(c2ccc3c(c2)OCO3)C(c2ccc3ccccc3c2)=N1 (centres undefined) | 1.56 | 1.01 | 3.45 | 1.97
21 | COc1cc(C2CC(c3ccccc3)=NN2C(C)=O)cc(OC)c1OC (centres undefined) | 3.38 | 3.56 | 4.64 | 3.39
22 | COc1ccc(C2CC(c3cccc4ccccc34)=NN2C(C)=O)c(OC)c1OC (centres undefined) | 1.79 | 1.29 | 1.98 | 1.22
23 | COc1ccc(OC)c(C2CC(c3ccco3)=NN2C(C)=O)c1 (centres undefined) | 11.8 | 13.3 | 11 | 11.2

Row | SMILES | IC50 (IMR-32) [µM] | IC50 (HEp-2) [µM] | IC50 (OVCAR) [µM] | IC50 (PC-3) [µM]
24 | COc1ccc(C2CC(c3cccc4ccccc34)=NN2C(C)=O)cc1OC (centres undefined) | 1.68 | 1.03 | 2.69 | 2.01
25 | COc1cc(C2CC(c3ccc(Br)cc3)=NN2C(C)=O)cc(OC)c1OC (centres undefined) | 3.13 | 4.53 | 4.78 | 3.45
26 | CC(=O)N1N=C(c2cccc3ccccc23)CC1c1cccc([N+](=O)[O-])c1 (centres undefined) | 3.96 | 4.08 | 3.65 | 3.13
27 | COc1ccc(C2CC(c3ccc4ccccc4c3)=NN2C(C)=O)cc1O (centres undefined) | 1.49 | 1.02 | 2.16 | 2.04
28 | CC(=O)N1N=C(c2ccco2)CC1c1ccccc1 (centres undefined) | 29.1 | 32.1 | 31.3 | 21.3
29 | CC(=O)N1N=C(c2ccco2)CC1c1cccc(O)c1 (centres undefined) | 11.8 | 10 | 13.2 | 16.5
30 | CC(=O)N1N=C(c2ccccc2)CC1c1ccc(N(C)C)cc1 (centres undefined) | 9.66 | 14.6 | 12 | 7.88
31 | COc1cc(OC)c(C2CC(c3ccco3)=NN2C(C)=O)cc1OC (centres undefined) | 7.76 | 6.69 | 6.76 | 8.98
32 | COc1ccc(OC)c(C2CC(c3ccc4ccccc4c3)=NN2C(C)=O)c1 (centres undefined) | 1.32 | 1.09 | 2.33 | 1.66
33 | CC(=O)N1N=C(c2ccc3ccccc3c2)CC1c1cccc(Br)c1 (centres undefined) | 9.87 | 8.78 | 10.8 | 10.9
34 | CC(=O)N1N=C(c2cccc3ccccc23)CC1c1cccc(Br)c1 (centres undefined) | 11.9 | 9.88 | 12.3 | 12
35 | CC(=O)N1N=C(c2cccc([N+](=O)[O-])c2)CC1c1ccccc1 (centres undefined) | 7.89 | 8.93 | 9.92 | 8.71
36 | CC(=O)N1N=C(c2cccc([N+](=O)[O-])c2)CC1c1cccc(Cl)c1Cl (centres undefined) | 25.3 | 27.6 | 19.7 | 18.2
37 | COc1cc(C2CC(c3ccco3)=NN2C(C)=O)ccc1O (centres undefined) | 23.3 | 10.1 | 11.3 | 12.9
38 | CC(=O)N1N=C(c2ccc3ccccc3c2)CC1c1ccccc1[N+](=O)[O-] (centres undefined) | 3.36 | 3.63 | 3.48 | 3.01
39 | COc1cc(C2CC(c3ccco3)=NN2C(C)=O)cc(OC)c1OC (centres undefined) | 9.87 | 21.3 | 10.9 | 9.65
40 | COc1ccc(C2CC(c3ccco3)=NN2C(C)=O)cc1OC (centres undefined) | 11.2 | 9.99 | 31.2 | 12.3
41 | COc1ccc(C2CC(c3ccc4ccccc4c3)=NN2C(C)=O)cc1 (centres undefined) | 4.12 | 3.23 | 5.79 | 4.53
42 | CC(=O)N1N=C(c2ccccc2)CC1c1ccccc1 (centres undefined) | 11.9 | 11.8 | 23.5 | 8.69
43 | CC(=O)N1N=C(c2ccco2)CC1c1ccc2c(c1)OCO2 (centres undefined) | 12.3 | 20 | 12.3 | 16.7
44 | COc1cc(C2CC(c3cccc4ccccc34)=NN2C(C)=O)ccc1O (centres undefined) | 1.78 | 1.13 | 2.73 | 2.13
45 | CC(=O)N1N=C(c2ccco2)CC1c1ccccc1[N+](=O)[O-] (centres undefined) | 27.9 | 47.9 | 28.3 | 19
46 | CC(=O)N1N=C(c2cccc3ccccc23)CC1c1ccco1 (centres undefined) | 8 | 17 | 13 | 18
